Values of other authors as cited in US20240082151A1, “ORALLY IMPLANTABLE DRUG DELIVERY DEVICE” (priority 2019, published 2024).

Key:
HIV = conditions: target for effective HIV prevention
[1] = another study (ref 34)
[2] = target TFV-DP in PBMCs 50 fmol per million cells; PB-PK simulation (ref 33)

| steady state plasma CAB concentration, four times the protein adjusted IC90 (PA-IC90) (HIV) [µg/mL] | SMILES | TAF release rate estimated to be protective [1] | linear subcutaneous TAF release rate estimated to lead to protective TFV-DP PBMC concentrations [2] [mg/day] |
| --- | --- | --- | --- |
| 0.66 | C[C@H]1CO[C@@H]2Cn3cc(C(=O)NCc4ccc(F)cc4F)c(=O)c(O)c3C(=O)N12 [CAB, Cabotegravir] | – | – |
| – | CC(C)OC(=O)[C@H](C)N[P@](=O)(CO[C@H](C)Cn1cnc2c(N)ncnc21)Oc1ccccc1 [TAF, Tenofovir alafenamide] | ca. 0.3 mg d^−1 | 0.5 |
